Legend:
leukocyte esterase (LE) [1] = assay: Electrochemical LE assay in human urine: glucose released from glucosyl ester, read on glucose test strip with potentiostat; type: biochemical; conditions: for sample incubation time with ester to yield enough glucose to be above the detection limit of the potentiostat/glucose strip system: human urine spiked with LE, 5.5 mM ester, glucose detection limit 5 μM
Method: (§1) The human leukocyte suspension in 154 mM NaCl solution (cat. No. MBS173116, 0.0867 mg mL^−1 leukocyte esterase (LE) protein, 4×10^8 WBC mL^−1) was purchased from MyBioSource (San Diego, Calif.). The suspension was diluted 10 times with a 90:10 vol. % mixture of 50 mM phosphate buffer saline (PBS, pH 7.40, 154 mM NaCl) solution and dimethylsulfoxide, left for 10 min to lyse the leukocytes chemically, sonicated for 30 s with a Q125 Qsonica probe (20% power) to further lyse them mechanically, and centrifuged at 15 000×g for 30 min. The resulting supernatant that contained LE was stored at −20° C.
The human synovial fluid (DLS0092658) was purchased from Discovery Life Sciences (Los Osos, Calif.) and stored at −70° C. when not in use. The clean-catch midstream portion of human urine (˜15.0 mL) was collected early in the morning in a 50.0-mL sterile centrifuge tube (Fisher Scientific, Pittsburgh, Pa.) centrifuged at 600×g for 5 min, and the supernatant was stored at −20° C. The synovial fluid and urine were spiked with known amount of LE before the analysis.
Electrochemical Measurements. The glucose strip was inserted into an electronic holder (DropSens, Llanera, Spain), which was then connected to a CHE 832B potentiostat (other potentiostats could also be used). The strip was used in a 2-electrode mode with the counter and reference electrodes connected together as a single cathode and a working electrode serving as an anode (the strip's fill-detector electrode was not used). The potential applied to a working electrode was equal to 0.15 V vs. strip's reference/counter electrode.
The 0.15 V potential was applied to a glucose strip, which was then contacted at time t=0 s with a small drop of sample (˜10 μL) that was placed on a Petri dish (FIG. 2). The amperogram obtained in such a way was integrated between t=2 and t=22 s to determine the charge Q flowing through the strip. Two charges were always determined: Q(ester) for a sample incubated with 5.5 mM ester for 5 min, and Q(no ester) for an original sample without ester. The difference in charge ΔQ [=Q(ester)−Q(no ester)] was proportional to the enzymatic activity of LE in a sample.
The samples were incubated with each ester to release glucose in the direct proportion to the enzymatic activity of LE in a sample. The released glucose was then detected at a commercial glucose test strip. A laboratory potentiostat was used to read the glucose strip. The strip was inserted in an electronic holder to facilitate the measurements (FIG. 2). Such a strip-potentiostat measuring system provided a much lower limit of glucose detection (5.0 μM, S/N=3; FIG. 3A) and a linear range at least up to 100 μM glucose (FIG. 3B), which allowed for a much shorter (minutes) incubation times (FIG. 4).

leukocyte esterase (LE) [2] = assay: Electrochemical LE assay in human synovial fluid: glucose released from glucosyl ester, read on glucose test strip with potentiostat; type: biochemical; conditions: human synovial fluid spiked with LE; 5.5 mM ester
Method: as §1
The human synovial fluid (DLS0092658) was purchased from Discovery Life Sciences (Los Osos, Calif.) and stored at −70° C. when not in use. […]
The 0.15 V potential was applied to a glucose strip, which was then contacted at time t=0 s with a small drop of sample (˜10 μL) that was placed on a Petri dish (FIG. 2). […] Two charges were always determined: Q(ester) for a sample incubated with 5.5 mM ester for 5 min, and Q(no ester) for an original sample without ester. […]
The samples were incubated with each ester to release glucose in the direct proportion to the enzymatic activity of LE in a sample. The released glucose was then detected at a commercial glucose test strip. A laboratory potentiostat was used to read the glucose strip. […]

Compound | kinetics of the enzymatic reaction of LE with the ester, compared to ester α (leukocyte esterase (LE) [1]; ascribed from longer incubation time and lower calibration slope) | sample incubation time with ester to yield enough glucose to be above the detection limit of the potentiostat/glucose strip system (leukocyte esterase (LE) [1]) [min] | calibration slope (ΔQ vs LE concentration) lower than with ester α (leukocyte esterase (LE) [1]; human urine, ester γ 10 min vs ester α 5 min incubation (FIG. 8)) [%] | sample incubation time with ester before reading the glucose strip (leukocyte esterase (LE) [2]) [min]
Cc1ccc(S(=O)(=O)N[C@@H](C)C(=O)OCCNC(=O)O[C@H]2O[C@H](CO)[C@@H](O)[C@H](O)[C@H]2O)cc1 [ester γ, 2-[({[(2R,3R,4S,5S,6R)-3,4,5-trihydroxy-6-(hydroxymethyl)oxan-2-yl]oxy}carbonyl)amino]ethyl (2S)-2-(4-methylbenzenesulfonamido)propanoate] | slower kinetics | 10 | ~10 | –
Cc1ccc(S(=O)(=O)N[C@@H](C)C(=O)OCCCC(=O)O[C@@H]2O[C@H](CO)[C@@H](O)[C@H](O)[C@H]2O)cc1 [ester α, (2S,3R,4S,5S,6R)-3,4,5-trihydroxy-6-(hydroxymethyl)oxan-2-yl 4-{[(2S)-2-(4-methylbenzenesulfonamido)propanoyl]oxy}butanoate] | – | 5 | – | 5

Reference: US20230203560A1, “GLUCOSYL ESTERS FOR INFECTION SCREENING” (Board of Regents, The University of Texas System, priority 2020, published 2023)
